The results in this text go back to PMC9784055, “Meroterpenoids and Steroids from the Marine-Derived Fungus Trametes sp. ZYX-Z-16” (Molecules, 2022).

The subject of one test is T1, Bacillus subtilis.
T1 construct: ATCC 6633
The test is described as follows: microbe, parasite or virus in culture. Also noted: antibacterial 96-well microtiter plate assay, visible growth, 37 °C. As to conditions: 12 h. An excerpt:
(§1) Four bacteria (Staphylococcus aureus ATCC6538, Bacillus subtilis ATCC 6633, Escherichia coli ATCC 25922, and Listeria monocytogenes ATCC 1911) were used for antibacterial evaluation for all compounds, referring to the previous method with ampicillin as a positive control. […] Five phytopathogens (Fusarium oxysporum f. sp. cubense, Fusarium spp., Peronophythora litchii, Colletotrichum gloeosporioides, and Hylocereus undatus) were used for antifungal evaluation for all compounds, referring to the previous broth microdilution method with carbendazim as a positive control. […] Each test was performed in triplicate. The inhibitory activity of all compounds against four bacteria (Staphylococcus aureus ATCC6538, Bacillus subtilis ATCC 6633, Escherichia coli ATCC 25922, and Listeria monocytogenes ATCC 1911) was evaluated using the 96-well microtiter plates method.

Another test relates to T2, Staphylococcus aureus.
T2 construct: ATCC 6538
The test is described as follows: microbe, parasite or virus in culture. Also on record: antibacterial 96-well microtiter plate assay, visible growth, 37 °C. Particulars: 12 h.
Text: as §1

The next test concerns T3, Listeria monocytogenes.
T3 construct: ATCC 1911
Description: microbe, parasite or virus in culture. Also on record: antibacterial 96-well microtiter plate assay, visible growth, 37 °C. As to conditions: 12 h.
Text: as §1

The next test deals with T4, Escherichia coli.
T4 construct: ATCC 25922
The test is described as follows: microbe, parasite or virus in culture. Also noted: antibacterial 96-well microtiter plate assay, visible growth, 37 °C. Particulars: 12 h.
Text: as §1

Another test deals with Peronophythora litchii. The test is described as follows: microbe, parasite or virus in culture. Also noted: antifungal broth microdilution, visible growth, 28 °C. As to conditions: Phytophthora litchii, 48 h. The procedure:
(§2) Four bacteria (Staphylococcus aureus ATCC6538, Bacillus subtilis ATCC 6633, Escherichia coli ATCC 25922, and Listeria monocytogenes ATCC 1911) were used for antibacterial evaluation for all compounds, referring to the previous method with ampicillin as a positive control. The bacteria inhibitory activity of all compounds was observed after 12 h in a constant temperature incubator at 37 °C. Five phytopathogens (Fusarium oxysporum f. sp. cubense, Fusarium spp., Peronophythora litchii, Colletotrichum gloeosporioides, and Hylocereus undatus) were used for antifungal evaluation for all compounds, referring to the previous broth microdilution method with carbendazim as a positive control. The fungal inhibitory activity of all compounds was observed after 48 h in a constant temperature incubator at 28 °C. […] Each test was performed in triplicate. The inhibitory activities of all compounds against five phytopathogenic fungi (Fusarium oxysporum f. sp. cubense, Fusarium spp., Peronophythora litchii, Colletotrichum gloeosporioides, and Hylocereus undatus) were evaluated using the broth microdilution method.

In test [1] the test system is Colletotrichum gloeosporioides. Description: microbe, parasite or virus in culture. Also on record: antifungal broth microdilution, visible growth, 28 °C. As to conditions: 48 h. The procedure: as §2
The subject of test [2] is Fusarium oxysporum f. sp. cubense. The test is described as follows: microbe, parasite or virus in culture. Also on record: antifungal broth microdilution, visible growth, 28 °C. Particulars: 48 h. How it is done: as §2
For another test, the system named is Fusarium spp. The test is described as follows: microbe, parasite or virus in culture. Particulars: 48 h, read-out: Fusarium spp. MIC. How it is done: as §2, with “triplicate.” for “triplicate. The inhibitory activities of all compounds against five phytopathogenic fungi (Fusarium oxysporum f. sp. cubense, Fusarium spp., Peronophythora litchii, Colletotrichum gloeosporioides, and Hylocereus undatus) were evaluated using the broth microdilution method.”

Another test deals with α-glucosidase. Description: α-glucosidase inhibition assay with p-NPG as substrate. Format: biochemical.

In brackets after ≈: the same amount, converted by molar mass.

For the compound `CC1(C)S[C@@H]2[C@H](NC(=O)[C@H](N)c3ccccc3)C(=O)N2[C@H]1C(=O)O` [Ampicillin], the MIC in the test with Bacillus subtilis, in the test with Staphylococcus aureus, in the test with Listeria monocytogenes and against Escherichia coli was less than 1 µg/mL in each case.

For the compound `COC(=O)Nc1nc2ccccc2[nH]1` [Carbendazim], the MIC (in the test on Peronophythora litchii; in test [1]; in test [2]; with Fusarium spp.) was less than 1 µg/mL each time.

For the compound `COC(=O)C1C(=O)C(C)=C2OC3(CC2(C)C1C)C(C)C(O)CC1C(C)(C)OC(=O)CCC13C` (stereo not shown) [compound 1, asnovolin H], the MIC (with Peronophythora litchii; in test [1]; in [2]; in the test on Bacillus subtilis; against Staphylococcus aureus; in the test on Listeria monocytogenes) was more than 128 µg/mL throughout. Also, the MIC against Escherichia coli and in the test with Fusarium spp. was more than 128 µg/mL throughout.

In the case of `CC1=C2O[C@@]3(C[C@]2(C)C(C)=C(C(=O)O)C1=O)[C@@H](C)CC[C@H]1C(C)(C)OC(=O)CC[C@@]13C` [compound 2, asnovolin I], the MIC (against Peronophythora litchii; in test [1]; in test [2]; in the test with Bacillus subtilis; in the test on Staphylococcus aureus; in the test with Listeria monocytogenes) was more than 128 µg/mL each time. Besides, the MIC with Escherichia coli and in the test on Fusarium spp. was more than 128 µg/mL each time.

On to `COC(=O)C1=C(C)C2(C)CC3(OC2=C(C)C1=O)C(C)CCC1C(C)(C)OC(=O)CCC13C` (stereo not shown) [compound 3, asnovolin C 5′6′-dehydro hydrogen], for which the MIC (in the test with Peronophythora litchii; in test [1]; in test [2]; against Bacillus subtilis; with Staphylococcus aureus; in the test with Listeria monocytogenes) was more than 128 µg/mL in each case. The MIC against Escherichia coli and in the test on Fusarium spp. was more than 128 µg/mL throughout.

Turning to `COC(=O)CC[C@@]1(C)[C@H](C(C)(C)O)CC[C@H](C)[C@@]12C[C@@]1(C)C(=C(C)C(=O)[C@@H](C(=O)OC)[C@@H]1C)O2` [compound 4, asnovolin C], the MIC (in the test on Peronophythora litchii; in test [1]; in [2]; with Bacillus subtilis; against Staphylococcus aureus; in the test on Listeria monocytogenes) was more than 128 µg/mL each time. Besides, the MIC in the test with Escherichia coli and in the test on Fusarium spp. was more than 128 µg/mL throughout.

On to `CC1=CC(=O)C(C)=C2O[C@@]3(C[C@]12C)[C@@H](C)CC[C@H]1C(C)(C)[C@@H](O)CC[C@@]13C` [compound 5, chermesin A], for which the MIC in the test with Peronophythora litchii is more than 128 µg/mL; in test [1], more than 128 µg/mL; in [2], more than 128 µg/mL; against Bacillus subtilis it was more than 128 µg/mL; in the test with Staphylococcus aureus, 128 µg/mL (≈ 344 µM); in the test with Listeria monocytogenes, more than 128 µg/mL. Moreover, the MIC against Escherichia coli and in the test on Fusarium spp. was more than 128 µg/mL throughout.

For the compound `C[C@@H]1Cc2c3c(cc(O)c2C(=O)O1)O[C@@]1(C)[C@@H](O)C[C@H]2C(C)(C)C(=O)C=C[C@]2(C)[C@@H]1C3` [compound 6, chrodrimanin E], the MIC (against Peronophythora litchii; in test [1]; in [2]; in the test on Bacillus subtilis; with Staphylococcus aureus; in the test with Listeria monocytogenes) was more than 128 µg/mL throughout. In addition, the MIC against Escherichia coli and with Fusarium spp. was more than 128 µg/mL each time.

`C[C@@H]1Cc2c3c(cc(O)c2C(=O)O1)O[C@@]1(C)[C@@H](O)C[C@H]2C(C)(C)C(=O)CC[C@]2(C)[C@@H]1C3` [compound 7, chrodrimanin H]: the MIC (with Peronophythora litchii; in test [1]; in test [2]; with Bacillus subtilis; in the test with Staphylococcus aureus; against Listeria monocytogenes) was more than 128 µg/mL each time. The MIC against Escherichia coli and with Fusarium spp. was more than 128 µg/mL each time.

Regarding `CC(=O)O[C@@H]1c2c3c(cc(O)c2C(=O)O[C@@H]1C)O[C@]1(C)[C@H](C3)[C@@]2(C)CCC(=O)C(C)(C)[C@@H]2C[C@@H]1O` [compound 8, thailandolide B], the MIC (in the test with Peronophythora litchii; in [1]; in [2]; against Bacillus subtilis; in the test with Staphylococcus aureus; against Listeria monocytogenes) was more than 128 µg/mL throughout. Also, the MIC against Escherichia coli and with Fusarium spp. was more than 128 µg/mL each time.

For the compound `CC(C)[C@@H](C)/C=C/[C@@H](C)[C@H]1CC[C@H]2C3=C(CC[C@]12C)[C@@]1(C)CCC(=O)C=C1C=C3` [compound 9, ergosta-4,6,8,22E-tetraene-3-one], the MIC (in the test on Peronophythora litchii; in [1]; in test [2]; against Bacillus subtilis; against Staphylococcus aureus; against Listeria monocytogenes) was more than 128 µg/mL in each case. Besides, the MIC in the test on Escherichia coli and in the test with Fusarium spp. was more than 128 µg/mL in each case.

As to `CC(C)[C@@H](C)/C=C/[C@@H](C)[C@H]1CC[C@@]2(O)C3=CC(=O)C4=CC(=O)CC[C@]4(C)[C@H]3CC[C@]12C` [compound 10, 14α-hydroxyergosta-4,7,22E-triene-3,6-dione], the MIC (in the test with Peronophythora litchii; in test [1]; in test [2]; with Bacillus subtilis; with Staphylococcus aureus; with Listeria monocytogenes) was more than 128 µg/mL in each case. In addition, the MIC in the test on Escherichia coli and with Fusarium spp. was more than 128 µg/mL each time. This compound also yielded a 50% inhibitory concentration (IC50) against α-glucosidase of 111 µM.

As to `CC(C)C(C)C=CC(C)C1CCC2C3CC(O)C4=CC(=O)CCC4(C)C3CCC12C` (stereo not drawn) [compound 13, ergosta-6α-hydroxy-4,22E-dien-3-one], the MIC (in the test on Peronophythora litchii; in test [1]; in test [2]; in the test on Bacillus subtilis; in the test on Staphylococcus aureus; against Listeria monocytogenes) was more than 128 µg/mL in each case. Besides, the MIC against Escherichia coli and in the test on Fusarium spp. was more than 128 µg/mL in each case.

For `CO[C@@H]1C[C@H]([C@H](C)/C=C/[C@H](C)C(C)C)[C@@]2(C)CC[C@H]3C(=C12)C=CC1=CC(=O)CC[C@@]13C` [compound 16, 15β-methoxy-ergosta-4,6,8(14),22E-tetraene-3-one], the MIC (against Peronophythora litchii; in test [1]; in test [2]; in the test with Bacillus subtilis; with Staphylococcus aureus; in the test with Listeria monocytogenes) was more than 128 µg/mL in each case. For the same compound, the MIC with Escherichia coli and in the test with Fusarium spp. was more than 128 µg/mL each time.

On to `CC(C)[C@@H](C)/C=C/[C@@H](C)[C@H]1CC(=O)C2=C3C=CC4=CC(=O)CC[C@]4(C)[C@@]3(O)CC[C@@]21C` [compound 17, ganodermaside C], for which the MIC (against Peronophythora litchii; in [1]; in test [2]; with Bacillus subtilis; with Staphylococcus aureus; with Listeria monocytogenes) was more than 128 µg/mL in each case. Moreover, the MIC against Escherichia coli and in the test with Fusarium spp. was more than 128 µg/mL in each case.

Regarding `CC(C)[C@@H](C)/C=C/[C@@H](C)[C@H]1C[C@H](O)C2=C3C=CC4=CC(=O)CC[C@]4(C)C3CC[C@@]21C` (stereo partly shown) [compound 18, ganodermaside A], the MIC (against Peronophythora litchii; in test [1]; in test [2]; with Bacillus subtilis; against Staphylococcus aureus; against Listeria monocytogenes) was more than 128 µg/mL throughout. The MIC against Escherichia coli and in the test with Fusarium spp. was more than 128 µg/mL throughout.
